Measurements reported in patent publication US10294234B2, “HIV inhibitor compounds” (priority 2017, dated 2019).

System: HIV-1 (IIIB) in MT-4 cells
Assay: MT-4 HIV assay
Assay type: cell-based
Settings: Human immunodeficiency virus 1, MT4, 120 h; HIV-1 (IIIB), MT-4 cells, 5 days, Cell Titer Glo; read-out: EC50
Description: Compounds were tested in a high-throughput 384-well assay format for their ability to inhibit the replication of HIV-1 (IIIB) in MT-4 cells. Compounds were serially diluted (1:3) in DMSO on 384-well polypropylene plates and further diluted 200-fold into complete RPMI media (10% FBS, 1% P/S) using the Biotek Micro Flow and Agilent ECHO acoustic dispenser. Each plate contained up to 8 test compounds, with negative (No Drug Control) and 5 uM AZT positive controls. MT-4 cells were pre-infected with 10 uL of either RPMI (mock-infected) or a fresh 1:250 dilution of an HIV-1 (IIIB) concentrated virus stock. Infected and uninfected MT-4 cells were further diluted in complete RPMI media and added to each plate using a Micro Flow dispenser. After 5 days incubation in a humidified and temperature controlled incubator (37° C.), Cell Titer Glo (Promega) was added to the assay plates to quantify the amount of luciferase.

| Structure (SMILES) | EC50 |
| --- | --- |
| COC(=O)N[C@H](C(=O)N[C@@H](Cc1ccc(C#Cc2ccc(N3C[C@H]4C[C@@H]3CN4C3COC3)nc2)cc1)[C@@H](O)CN(Cc1ccc(-c2ccn(C3CC3)n2)cc1)NC(=O)[C@@H](NC(=O)OC)C(C)(C)C(F)(F)F)C(C)(C)C(F)(F)F [Example 28, Methyl ((5S,8S,9S,14S)-11-(4-(1-cyclopropyl-1H-pyrazol-3-yl)benzyl)-16,16,16-trifluoro-9-hydroxy-15,15-dimethyl-8-(4-((6-((1R,4R)-5-(oxetan-3-yl)-2,5-diazabicyclo[2.2.1]heptan-2-yl)pyridin-3-yl)ethynyl)benzyl)-3,6,13-trioxo-5-(1,1,1-trifluoro-2-methylpropan-2-yl)-2-oxa-4,7,11,12-tetraazahexadecan-14-yl)carbamate] | 4.56 nM |
| COC(=O)N[C@H](C(=O)N[C@@H](Cc1ccc(C#Cc2ccc(N3C[C@H]4C[C@@H]3CN4C3COC3)nc2)cc1)[C@@H](O)CN(Cc1ccc(-c2ccn(C(F)F)n2)cc1)NC(=O)[C@@H](NC(=O)OC)C(C)(C)C(F)(F)F)C(C)(C)C(F)(F)F [Example 29, Methyl ((5S,8S,9S,14S)-11-(4-(1-(difluoromethyl)-1H-pyrazol-3-yl)benzyl)-16,16,16-trifluoro-9-hydroxy-15,15-dimethyl-8-(4-((6-((1R,4R)-5-(oxetan-3-yl)-2,5-diazabicyclo [2.2.1]heptan-2-yl)pyridin-3-yl)ethynyl)benzyl)-3,6,13-trioxo-5-(1,1,1-trifluoro-2-methylpropan-2-yl)-2-oxa-4,7,11,12-tetraazahexadecan-14-yl)carbamate] | 4.02 nM |
| COC(=O)N[C@H](C(=O)N[C@@H](Cc1ccc(C#Cc2cnc(N3C[C@H]4C[C@@H]3CN4C3COC3)nc2)cc1)[C@@H](O)CN(Cc1ccc(-c2ccn(C3CC3)n2)cc1)NC(=O)[C@@H](NC(=O)OC)C(C)(C)C(F)(F)F)C(C)(C)C(F)(F)F [Example 30, methyl ((5S,8S,9S,14S)-11-(4-(1-cyclopropyl-1H-pyrazol-3-yl)benzyl)-16,16,16-trifluoro-9-hydroxy-15,15-dimethyl-8-(4-((2-((1R,4R)-5-(oxetan-3-yl)-2,5-diazabicyclo[2.2.1]heptan-2-yl)pyrimidin-5-yl)ethynyl)benzyl)-3,6,13-trioxo-5-(1,1,1-trifluoro-2-methylpropan-2-yl)-2-oxa-4,7,11,12-tetraazahexadecan-14-yl)carbamate] | 4.44 nM |
| COC(=O)N[C@H](C(=O)N[C@@H](Cc1ccc(C#Cc2cnc(N3CC4CCC(C3)N4C3COC3)nc2)cc1)[C@@H](O)CN(Cc1ccc(-c2ccn(C3CC3)n2)cc1)NC(=O)[C@@H](NC(=O)OC)C(C)(C)C(F)(F)F)C(C)(C)C(F)(F)F [Example 33, Methyl ((5S,8S,9S,14S)-11-(4-(1-cyclopropyl-1H-pyrazol-3-yl)benzyl)-16,16,16-trifluoro-9-hydroxy-15,15-dimethyl-8-(4-((2-(8-(oxetan-3-yl)-3,8-diazabicyclo [3.2.1]octan-3-yl)pyrimidin-5-yl)ethynyl)benzyl)-3,6,13-trioxo-5-(1,1,1-trifluoro-2-methylpropan-2-yl)-2-oxa-4,7,11,12-tetraazahexadecan-14-yl)carbamate] | 4.71 nM |
| COC(=O)N[C@H](C(=O)N[C@@H](Cc1ccc(C#Cc2ccc(N3CC4CCC(C3)N4C3COC3)nc2)cc1)[C@@H](O)CN(Cc1ccc(-c2ccn(C3CC3)n2)cc1)NC(=O)[C@@H](NC(=O)OC)C(C)(C)C(F)(F)F)C(C)(C)C(F)(F)F [Example 34, Methyl ((5S,8S,9S,14S)-11-(4-(1-cyclopropyl-1H-pyrazol-3-yl)benzyl)-16,16,16-trifluoro-9-hydroxy-15,15-dimethyl-8-(4-((6-(8-(oxetan-3-yl)-3,8-diazabicyclo [3.2.1]octan-3-yl)pyridin-3-yl)ethynyl)benzyl)-3,6,13-trioxo-5-(1,1,1-trifluoro-2-methylpropan-2-yl)-2-oxa-4,7,11,12-tetraazahexadecan-14-yl)carbamate] | 5.26 nM |
